According to patent US12668785B2, “Combination treatment by administering a recombinant apyrase protein in conjunction with a P2Y12 inhibitor” (ASTRAZENECA AB, priority 2020, dated 2026):
Where two headings read alike, the source gives them in different places.

What was measured:
platelet aggregation [1] = conditions: cited from earlier work; for time for platelet activity to return to baseline following discontinuance: after discontinuance
[2] = cited from earlier work; for time to peak plasma concentration: after oral administration; for mean elimination half-life: described in the drug label
animal models [3] = conditions: cited from earlier work
platelet aggregation [4] = assay: ADP-induced whole blood platelet aggregation (Multiplate impedance aggregometer) after in vivo dosing; design: species or system mouse; conditions: for PA (AU*min): blood at t = 80 min, ADP 6.5 μmol/L
Protocol: Immediately after the blood sampling, 175 μL whole blood was added to the Multiplate® (Roche Diagnostics GmbH, Mannheim, Germany) mini test cells and mixed with 175 μL 37° C. pre-heated saline (9 mg/mL, Fresenius Kabi AG, Bad Homburg, Germany).

[5] = system: pig animal model of myocardial infarction; assay: Cardiac damage assessed by CMR in pig model of myocardial infarction; format: in vivo; conditions: ticagrelor 180 mg p.o. 2 h prior MI, then 90 mg/bid
Protocol: (§1) Regular chow-fed Landrace pigs (n=20; weight≈40 kg) were randomly (Excel randomized function) distributed into four groups to receive: • I) Oral placebo-control (2 h prior Myocardial Infarction (MI) induction n=5) • II) A loading dose of ticagrelor (180 mg; n=5; p.o 2 h prior MI induction) • III) A loading dose of ticagrelor (180 mg; n=5; p.o 2 h prior MI induction and 1 mg/kg AZD3366 i.v. 10 min before reperfusion) • IV) A loading dose of ticagrelor (180 mg; n=5; p.o 2 h prior MI induction and 3 mg/kg AZD3366 i.v. 10 min before reperfusion)
(§2) Thereafter, pigs underwent temporary (90 minutes) balloon occlusion of the mid-left anterior descending coronary artery (experimental MI) and then reperfused, essentially as described in Vilahur et al. 2016. Throughout the following 42 days, the pigs received daily oral maintenance dosing of placebo (group I) or ticagrelor (90 mg/bid, groups II to IV) and serial Cardiac Magnetic Resonance (CMR) assessments were performed at day 3 (early remodeling phase) and day 42 (late remodeling phase) post-MI.
(§3) On the day of MI-induction animals received buprenorphine (0.03 mg/kg) and cefazoline (25 mg/kg) as prophylaxis for pain and wound infection, respectively, and then anaesthetized by administrating an intramuscular injection of ketamine (30 mg/kg), xylazine (2.2 mg/kg), and atropine (0.05 mg/kg). Once tranquilized, animals were endotracheally intubated and anesthesia was maintained by isoflurane inhalation (2%). Prior to starting the MI-induction procedure, an infusion of amiodarone (300 mg) and lidocaine (150 mg) in 1.000 mL of saline (250 mL/h) was initiated as prophylaxis for malignant ventricular arrhythmias through a line placed in the marginal ear vein and a bolus of heparin (100 U/kg) was administered to prevent clot formation in the catheters. […] Complete coronary ischemia (verified by angiography) was maintained for 90 minutes. At the end of the ischemic period, the balloon was completely deflated and animals were allowed to recover. Electrocardiogramand hemodynamic parameters were continuously recorded throughout the entire procedure and the echocardiographic system (Phillips iE33) equipped with a S5-1 sector array transducer was used prior- and post-MI induction to document the initial worsening of left ventricular ejection fraction (LVEF, M-mode analysis using the parasternal long-axis view; Vilahur et al. 2016).
(§4) CMR studies were conducted serially in all animals at Day 3 (early remodeling phase) and Day 42 (late remodeling phase) post-MI. The studies were performed on a 3.0T-CMR system (AchievaVR, Philips, Amsterdam, The Netherlands) and CMR image acquisition was carried out by a CMR specialized technician blinded in terms of treatment. For CMR studies, animals were anaesthetized with an intramuscular injection of a cocktail composed of ketamine, xylazine, and atropine and maintained by a continuous intravenous infusion of propofol to ensure mechanical ventilation. Once the animals were positioned in a head-first supine position with a flexible phased-array surface coil placed over the chest, ECG gating was used to acquire still images of the heart. The following dedicated CMR sequences were acquired in all cases: ‘cine’ Balanced Steady-State Free Precession (bSSFP) imaging sequence to assess wall motion (WM) and cardiac function; T2-weighted short-tau inversion recovery (T2w-STIR) sequence to assess myocardial edema; early gadolinium enhancement to study microvascular obstruction (no reflow phenomenon); and late gadolinium enhancement (LGE) to assess the amount and extent of myocardial necrosis. All the CMR studies followed the same scheme. First, scout images [T1-turbo field echo (TFE) sequence] were obtained to localize the true axes of the heart and define a field of view involving the whole heart. […]

C57BI6 mice [6] = assay: Mouse tail bleeding model (blood loss and bleeding time)
Protocol: (§5) C57BI6 mice were administered an intravenous bolus of AZD3366 or vehicle. In separate groups, mice were administered AZD3366 and ticagrelor or ticagrelor only as a bolus and continuous infusion of ticagrelor. The groups, doses and volumes of administration were as described in the following table:
(§6) Twenty min following dosing, bleeding was initiated by cutting 5 mm of the tip of the tail. The tail was rinsed with water and placed in a haemoglobin sensitive device. Light transmission through the blood and water mixture was recorded and converted to absorbance using the PharmLab software (V6.0, AstraZeneca R&D, Gothenburg, Sweden). Transmittance below 95% was defined as bleeding. Total blood loss, (area under the bleeding curve, t=20 min to t=80 min: cumulative blood loss vs time, absorbance*s, abs*s) and bleeding time (BT) were measured over 60 min from the start of tail cutting.

[7] = Plasma concentration of ticagrelor by LC-MS/MS; format: in vivo; conditions: C57BI6, mouse, intravenous, t = 80 min, ticagrelor 1.2 mg/kg + 30 μg/kg*min
Protocol: The plasma concentration of ticagrelor was determined by means of a Liquid Chromatographic-Mass Spectrometric (LC-MS/MS) method.

[8] = system: pig animal model of myocardial infarction; assay: Global and regional cardiac function assessed by CMR in pig model of myocardial infarction; format: in vivo
Protocol: as §1, §2, §3, §4

[9] = system: adenosine diphosphatase activity; conditions: Moeckel et al. (2014); cited from earlier work
animal models [10] = conditions: cited from earlier work; remark: listed apart in the source
[11] = system: animal models of ischemic stroke; conditions: Sun et al., 2011; Tan et al., 2014; cited from earlier work
[12] = in vivo; cited from earlier work
C57BI6 mice [13] = conditions: mouse, in vivo, iv
Protocol: as §5, §6

[14] = ticagrelor-treated animals, p<0.001
[15] = 3 Days Post-MI, ticagrelor 180 mg p.o. 2 h prior MI, then 90 mg/bid
[16] = 42 Days Post-MI, ticagrelor 180 mg p.o. 2 h prior MI, then 90 mg/bid
[17] = BSL (baseline), ticagrelor group
[18] = preclinical models (Moekel et al. 2015)

CSCCNc1nc(SCCC(F)(F)F)nc2c1ncn2[C@@H]1O[C@H](COP(=O)(O)OP(=O)(O)C(Cl)(Cl)P(=O)(O)O)[C@@H](O)[C@H]1O [Cangrelor]
time for platelet responses to return to baseline (platelet aggregation [1]; after discontinuation): ≤ 15 min
time to maximal platelet inhibition (platelet aggregation [1]; in vivo): ≤ 15 min
time to steady state plasma levels and platelet aggregation inhibition ([2]; from onset of infusion): ≤ 30 min
elimination half-life ([2]; in vivo): 3 to 6 min
plasma half-life ([2]; in vivo): less than 9 min

Clc1ccccc1CN1CCc2sccc2C1 [ticlopidine]
time to peak plasma concentration [2]: around 2 hours

CC(=O)Oc1cc2c(s1)CCN(C(C(=O)C1CC1)c1ccccc1F)C2 (stereo not shown) [Prasugrel]
elimination half-life ([2]; stated after the active metabolite of prasugrel): about 7.4 hours

COC(=O)[C@H](c1ccccc1Cl)N1CCc2sccc2C1 [Clopidogrel]
cardioprotection / protective efficacy (animal models [3]; FIG. 6 of Moeckel et al. (2014)): not cardioprotective
time for platelet activity to return to baseline following discontinuance (platelet aggregation [1]): about 5 days
time at which dose-dependent platelet aggregation inhibition is observed (platelet aggregation [1]; following oral administration of a single dose): around 2 hours
elimination half-life ([2]; following a single dose of 75 mg): approximately 6 hours
time to peak plasma concentrations of the active metabolite ([2]; following an oral dose, analyte: active metabolite): 30 to 60 min

CCCSc1nc(N[C@@H]2C[C@H]2c2ccc(F)c(F)c2)c2nnn([C@@H]3C[C@H](O)[C@@H](O)[C@H]3O)c2n1 [AR-C124910XX]
potency of active metabolite relative to ticagrelor (platelet aggregation [1]; in vivo): approximately equipotent
time to peak plasma concentration [2]: ~2.5 h
mean elimination half-life [2]: 9 h

CCCSc1nc(N[C@@H]2C[C@H]2c2ccc(F)c(F)c2)c2nnn([C@@H]3C[C@H](OCCO)[C@@H](O)[C@H]3O)c2n1 [Ticagrelor, (1S,2S,3R,5S)-3-[7-[[(1R,2S)-2-(3,4-difluorophenyl)cyclopropyl]amino]-5-(propylthio)-3H-1,2,3-triazolo[4,5-d]pyrimidin-3-yl]-5-(2-hydroxyethoxy)-1,2-cyclopentanediol]
PA (AU*min) (platelet aggregation [4]; ticagrelor 1.2 mg/kg + 30 μg/kg*min): 2 ± 2 AU*min
Edema % of LV mass ([5]; 3 Days Post-MI): 13.1 ± 0.9 %
Edema (gr) ([5]; 3 Days Post-MI): 10.5 ± 0.8 gr
LV Mass ([5]; 3 Days Post-MI): 81.3 ± 7.4
Necrosis % of LV mass ([5]; 3 Days Post-MI): 8.2 ± 1.2 %
Necrosis (gr) ([5]; 3 Days Post-MI): 6.6 ± 1.0 gr
LV Mass ([5]; 42 Days Post-MI): 108.6 ± 6.9
Necrosis % of LV mass ([5]; 42 Days Post-MI): 4.3 ± 0.8 %
Necrosis (gr) ([5]; 42 Days Post-MI): 4.7 ± 1.0 gr
time maximum inhibition of platelet aggregation is maintained (platelet aggregation [1]; after a dose): more than 8 hours
time for platelet activity to return to baseline following discontinuance (platelet aggregation [1]): 5 days
BT (s) Median (C57BI6 mice [6]; bleeding time over 60 min, ticagrelor bolus 1.2 mg/kg + infusion 30 μg/kg*min): 3433a, d s
Blood loss (abs*s) Median (C57BI6 mice [6]; tail transection at t = 20 min, recorded 60 min, ticagrelor bolus 1.2 mg/kg + infusion 30 μg/kg*min): 1157a, b, c abs*s
BT increase as compared to vehicle (C57BI6 mice [6]; [14]): 5.2 fold
Blood loss increase as compared to vehicle (C57BI6 mice [6]; [14]): 7.2 fold
time to peak plasma concentration [2]: approximately 1.5 hours
mean elimination half-life [2]: 7 h
concentration at 80 min [7]: 8 ± 0.2 µM
LVEF % [8, 15]: 50.3 ± 2.9%
Wall motion (mm) [8, 15]: 1.88 mm
LVEF % [8, 16]: 47.0 ± 4.4%
Wall motion (mm) [8, 16]: 2.55 mm
LVEF % [8, 17]: 53.7 ± 2.8%
Wall motion (mm) [8, 17]: 2.66 mm

B1: AZD3366: recombinant optimised form of soluble CD39L3 apyrase (R67G, T69R, N-terminal EVLP), amino acid sequence SEQ ID NO: 2 (protein)
chain: EVLPPGLKYGIVLDAGSSGTRVYVYQWPAEKENNTGVVSQTFKCSVKGSGISSYGNNPQDVPRAFEECMQKVKGQVPSHLHGSTPIHLGATAGMRLLRLQNETAANEVLESIQSYFKSQPFDFRGAQIISGQEEGVYGWITANYLMGNFLEKNLWHMWVHPHGVETTGALDLGGASTQISFVAGEKMDLNTSDIMQVSLYGYVYTLYTHSFQCYGRNEAEKKFLAMLLQNSPTKNHLTNPCYPRDYSISFTMGHVFDSLCTVDQRPESYNPNDVITFEGTGDPSLCKEKVASIFDFKACHDQETCSFDGVYQPKIKGPFVAFAGFYYTASALNLSGSFSLDTFNSSTWNFCSQNWSQLPLLLPKFDEVYARSYCFSANYIYHLFVNGYKFTEETWPQIHFEKEVGNSSIAWSLGYMLSLTNQIPAESPLIRLPIEPPV
modifications: N-terminal EVLP
platelet aggregation (PA) inhibition (platelet aggregation [4]; AZD3366 1 and 3 mg/kg): complete platelet aggregation (PA) inhibition
PA (AU*min) (platelet aggregation [4]; AZD3366 1.0 mg/kg): 2 ± 2 AU*min
PA (AU*min) (platelet aggregation [4]; AZD3366 3.0 mg/kg): 0 ± 0 AU*min
adenosine diphosphatase activity compared with native apyrase [9]: four times higher
time until active after administration (animal models [10]; animal models): ≤ 5 min
time until return to baseline (animal models [10]; animal models): 3 to 4 weeks
time activity is maintained (animal models [10]; [18]): more than 24 hours
time to high levels of activity after administration (animal models [10]; [18]): within minutes
bleeding time (animal models [3]; Moeckel et al. (2014)): without an increase in bleeding time
infarction size (animal models [3]; Moeckel et al. (2014)): decreased infarction size
reperfusion, re-occlusion and intracerebral bleeding [11]: enhance reperfusion, reduce re-occlusion and reduce intracerebral bleeding
plasma half-life compared with native apyrase [12]: 50 times
BT (s) Median (C57BI6 mice [13]; 1 mg/kg): 589 s
Blood loss (abs*s) Median (C57BI6 mice [13]; 1 mg/kg): 157 abs*s
BT (s) Median (C57BI6 mice [13]; 3 mg/kg): 1438 s
Blood loss (abs*s) Median (C57BI6 mice [13]; 3 mg/kg): 342e abs*s
